Experimental data as given in patent US4933361A, “Derivatives of bicyclic aminoacids agents containing these compounds and their use” (Hoechst Aktiengesellschaft, priority 1981, dated 1990).
Counter-ions that a name gives are not always drawn.

System: pressor reaction induced by 310 ng of angiotensin I
Test: Intraduodenal administration to the anesthetized rat, 50% inhibition of the pressor reaction induced by angiotensin I
Assay type: in vivo
Settings: 310 ng angiotensin I, 30 min after administration; for ED50: 0.5 h
Text: After administration in the dose . . . =ED50 :

[1] = Table I, H atoms on C-3a and C-(6+n)a cis
[2] = Table II, H atoms on C-3a and C-(6+n)a trans, X = phenyl, R1 = methyl

SMILES	ED50 [1] [mg/kg]	ED50 [2] [mg/kg]	other results
CCOC(=O)[C@H](CCc1ccccc1)N[C@@H](C)C(=O)N1[C@@H]2CCCC[C@@H]2C[C@H]1C(=O)O [Example 17, N-(1S-Carboethoxy-3-phenylpropyl)-S-alanyl-2S,3aR,7aR-octahydroindole-2-carboxylic acid hydrochloride]	0.05	–	–
CCOC(=O)[C@H](CCc1ccccc1)N[C@@H](C)C(=O)N1[C@@H]2CCC[C@@H]2C[C@H]1C(=O)O [Example 18, N-(1S-Carboethoxy-3-phenylpropyl)-S-alanyl-2S,3aR,6aR-octahydrocyclopenta[b]pyrrole-2-carboxylic acid hydrochloride]	0.04	–	–
CCOC(=O)[C@H](CCc1ccccc1)N[C@@H](C)C(=O)N1[C@@H]2CCCCC[C@@H]2C[C@H]1C(=O)O [Example 19, N-(1S-Carboethoxy-3-phenylpropyl)-S-alanyl-2S,3aR,8aR-decahydrocyclohepta[b]pyrrole-2-carboxylic acid hydrochloride]	0.23	–	–
C[C@H](N[C@@H](CCc1ccccc1)C(=O)O)C(=O)N1[C@@H]2CCCC[C@@H]2C[C@H]1C(=O)O [Example 20, N-(1S-Carboxy-3-phenylpropyl)-S-alanyl-2S,3aR,7aR-octahydroindole-2-carboxylic acid]	0.6	–	–
C[C@H](N[C@@H](CCc1ccccc1)C(=O)O)C(=O)N1[C@@H]2CCC[C@@H]2C[C@H]1C(=O)O [Example 21, N-(1S-Carboxy-3-phenylpropyl)-S-alanyl-2S,3aR,6aR-octahydrocyclopenta[b]pyrrole-2-carboxylic acid]	0.7	–	–
C[C@H](N[C@@H](CCc1ccccc1)C(=O)O)C(=O)N1[C@@H]2CCCCC[C@@H]2C[C@H]1C(=O)O [Example 22, N-(1S-Carboxy-3-phenylpropyl)-S-alanyl-2S,3aR,8aR-decahydrocyclohepta[b]pyrrole-2-carboxylic acid]	0.84	–	–
CCOC(=O)[C@H](CC(=O)c1ccccc1)N[C@@H](C)C(=O)N1C(C(=O)O)CC2CCCCC21.O=C(O)C(F)(F)F (stereo partly drawn) [Example 29, N-(1S-Carboethoxy-3-phenyl-3-oxopropyl)-S-alanyl-2β,3aβ,7aβ-octahydroindole-2-carboxylic acid trifluoroacetate]	–	–	ED50 (50% inhibition of the pressor reaction induced by angiotensin I) [1]: 0.39 mg/kg
CCOC(=O)[C@H](CCc1ccccc1)N[C@@H](C)C(=O)N1[C@H](C(=O)O)C[C@H]2CCCC[C@@H]21 [Example 42, N-(1S-Carboethoxy-3-phenylpropyl)-S-alanyl-2S,3aR,7aS-octahydroindole-2-carboxylic acid]	–	0.055	–
CCOC(=O)[C@H](CCc1ccccc1)N[C@@H](C)C(=O)N1[C@@H]2CCCC[C@H]2C[C@H]1C(=O)O [Example 43, N-(1S-Carboethoxy-3-phenylpropyl)-S-alanyl-2S,3aS,7aR-octahydroindole-2-carboxylic acid]	–	0.065	–
CCOC(=O)[C@H](CCc1ccccc1)N[C@@H](C)C(=O)N1[C@H](C(=O)O)C[C@H]2CCC[C@@H]21 [Example 44, N-(1S-Carboethoxy-3-phenylpropyl)-S-alanyl-2S,3aR,6aS-octahydrocyclopenta[b]pyrrole-2-carboxylic acid]	–	0.04	–
CCOC(=O)[C@H](CCc1ccccc1)N[C@@H](C)C(=O)N1[C@H](C(=O)O)C[C@H]2CCCCC[C@@H]21 [Example 46, N-(1S-Carboethoxy-3-phenylpropyl)-S-alanyl-2S,3aR,8aS-decahydrocyclohepta[b]pyrrole-2-carboxylic acid]	–	0.11	–
CCOC(=O)[C@H](CC(=O)c1ccccc1)N[C@@H](C)C(=O)N1[C@H](C(=O)O)C[C@H]2CCCC[C@@H]21 [Example 67, N-(1S-Carboethoxy-3-keto-3-phenylpropyl)-S-alanyl-2S,3aR,7aS-octahydroindole-2-carboxylic acid]	–	0.18	–
C[C@H](N[C@@H](CCc1ccccc1)C(=O)O)C(=O)N1[C@H](C(=O)O)C[C@H]2CCCC[C@@H]21 [Example 75, N-(1S-Carboxy-3-phenylpropyl)-S-alanyl-2S,3aR,7aS-octahydroindole-2-carboxylic acid]	–	0.8	–
C[C@H](N[C@@H](CCc1ccccc1)C(=O)O)C(=O)N1[C@@H]2CCCC[C@H]2C[C@H]1C(=O)O [Example 76, N-(1S-Carboxy-3-phenylpropyl)-S-alanyl-2S,3aS,7aR-octahydroindole-2-carboxylic acid]	–	0.85	–
C[C@H](N[C@@H](CCc1ccccc1)C(=O)O)C(=O)N1[C@H](C(=O)O)C[C@H]2CCC[C@@H]21 [Example 77, N-(1S-Carboxy-3-phenylpropyl)-S-alanyl-2S,3aR,6aS-octahydrocyclopenta[b]pyrrole-2-carboxylic acid]	–	0.7	–
C[C@H](N[C@@H](CCc1ccccc1)C(=O)O)C(=O)N1[C@H](C(=O)O)C[C@H]2CCCCC[C@@H]21 [Example 79, N-(1S-Carboxy-3-phenylpropyl)-S-alanyl-2S,3aR,6aS-decahydrocyclohepta[b]pyrrole-2-carboxylic acid]	–	1.08	–
